Data taken from US6951731B2, “Method for evaluating inhibition of aspartic proteases” (priority 2001, dated 2005).
Read-outs that look alike come from different tables or passages of the source. Where a SMILES comes first, the peptide text is derived from it. [ ]: non-standard residue; d: D form. The star is where a group is joined. Sta = CC(C)C[C@H](N)[C@@H](O)CC(=O)O; Isovaleryl = CC(C)CC(=O)*

What was measured:
pepsin [1] = biological target: T1, pepsin (Sus scrofa, UniProt P00791); details: cited from earlier work
T1 construct: formed from pepsinogen A by limited proteolysis

HIV-1 protease [2] = biological target: T2, HIV-1 protease (Human immunodeficiency virus type 1 group M subtype B, UniProt P04585); details: complex between HIV-1 protease and pepstatin; cited from earlier work
pepsin [3] = biological target: T1, pepsin; details: cited from earlier work; for D2Okcat (solvent isotope effect): pepsin, synthetic peptide substrate
HIV-1 protease [4] = biological target: T2, HIV-1 protease; details: cited from earlier work
pepsin [5] = biological target: T1, pepsin; assay: Kinetics and solvent isotope effects of pepsin acting on synthetic substrates; type: biochemical, porcine; details: for kcat (fitted pH-independent kinetic constant): re-analysis of Hunkapillar & Richards data
Method: FIG. 2: Kinetics of pepsin acting on N-trifluroacetyl-L-phenylalanine as a function of pH (A) and pD (B). The fitted pH-independent kinetic constants are kcat=0.038±0.006 min^−1 in H2O and kcat=[…] in D2O. The dotted line indicates the range of carboxyl pKs consistent with the fitted line in D2O.
The response of low-barrier hydrogen bonds to D2O, as described herein, finally solves this 92 year-old mystery and simultaneously provides a means to evaluate the efficacy of potential aspartic protease inhibitors. During hydrolysis of N-trifluroacetyl-L-phenylalanine, Hunkapillar & Richards^10 observed bell-shaped pH profiles which were shifted to the right, but the upper pK profiles shifted to the left, thereby bringing them closer together. Normally, D2O shifts all pKs to the right about half a unit because of the fractionation factor of H3O^+.^11
The fit to the BELL rate equation of data obtained in H2O converged with pKs of 2.9±0.1 and 4.5±0.1, while those in D2O converged to the default separation of only 0.6 units, the minimum that is statistically possible. The fitted curve in FIG. 2B is the same for identical pKs of 3.84±0.08 or separated pKs of 3.5 and 4.1—or anything in between. Unknown in 1972, low-barrier hydrogen bonds are now understood to cause opposite shifts in the pKs of the conjugate bases participating in the bond. Both protonation and deprotonation of the low-barrier hydrogen bond complex are made more difficult, which shifts apparent pKs outwards in H2O but less so in D2O.^7
By comparing the maximal values of their fitted curves, Hunkapillar & Richards estimated that ^D2Okcat≈3. However, the appropriate comparison note between the absolute maxima, but between the pH-independent maxima,^11 represented by the horizontal bars in FIGS. 2A and 2B. This ratio yields ^D2Okcat=1.8±0.4 for pKs separated by 0.6 units, and lower values if the fractionation factor is greater than 0.3. […]

[6] = product inhibition, substrate Ac-Ser-Glu-Asp-Tyr*Phe-Leu-Asp-Gly-NH2 (SEQ. ID. NO: 2), read-out: Kii
[7] = product inhibition, substrate Ac-Ser-Glu-Asp-Tyr*Phe-Leu-Asp-Gly-NH2 (SEQ. ID. NO: 2), read-out: Kis
[8] = substrate Ac-Ser-Glu-Asp-Tyr*Phe-Leu-Asp-Gly-NH2 (SEQ. ID. NO: 2), KH/KD
[9] = pH 4.5, substrate Ac-Ser-Glu-Asp-Tyr*Phe-Val-Val-NH2 (SEQ. ID. NO: 6)

T1 sequence (P00791 60-385): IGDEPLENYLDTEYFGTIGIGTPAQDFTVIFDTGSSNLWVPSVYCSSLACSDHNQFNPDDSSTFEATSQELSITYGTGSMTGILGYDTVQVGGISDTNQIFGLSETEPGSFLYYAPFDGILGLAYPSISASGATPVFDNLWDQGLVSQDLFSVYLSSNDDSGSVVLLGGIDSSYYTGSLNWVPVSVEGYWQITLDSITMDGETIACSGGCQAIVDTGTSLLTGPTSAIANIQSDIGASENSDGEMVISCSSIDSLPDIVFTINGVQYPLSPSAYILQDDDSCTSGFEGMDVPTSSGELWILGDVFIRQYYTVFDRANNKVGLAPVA

In the case of `CC(C)CC(=O)N[C@H](C(=O)N[C@H](C(=O)N[C@@H](CC(C)C)[C@@H](O)CC(=O)N[C@@H](C)C(=O)N[C@@H](CC(C)C)[C@@H](O)CC(=O)O)C(C)C)C(C)C` [pepstatin] (Isovaleryl-VV[Sta]A[Sta]-OH), the “D2Ok on slow onset of inhibition” value (pepsin [1]; pre-incubation experiments with free enzyme) is given as 0.69±0.09, the “D2Ok on slow onset of inhibition” value (pepsin [1]; when catalysis is in progress) is given as 1.25±0.09 and the “Low-barrier hydrogen bond signal in proton NMR of the inhibited complex” value (HIV-1 protease [2]) is given as “negative results”.
In the case of Lys-Lys-Ala-Lys-Phe-Nph-Arg-Leu, the “D2Okcat (solvent isotope effect)” value (pepsin [3]) is given as 2.02±0.15.
In the case of “Ac-Ser-Glu-Asp-Tyr (SEDY; printed: Ser-Glu-Asp-Tyr)”, the Ki (HIV-1 protease [4]; [6]) is listed as 12 mM, the Ki (HIV-1 protease [4]; [7]) is listed as 3.8 mM and the “D2OKii (solvent isotope effect on Kii)” value (HIV-1 protease [4]; [8]) is listed as 3.8 ± 1.3. For the same molecule, the “D2OKis (solvent isotope effect on Kis)” value (HIV-1 protease [4]; [8]) was 4.2 ± 1.6.
In the case of RASEDY [Ac-Arg-Ala-Ser-Glu-Asp-Tyr], the Ki (HIV-1 protease [4]; pH 3.5, substrate Ac-Ser-Glu-Asp-Tyr*Phe-Val-Val-NH2 (SEQ. ID. NO: 6), pattern uncompetitive, read-out: Kii) is listed as 0.23 mM, the “D2OKii (solvent isotope effect on Kii)” value (HIV-1 protease [4]; [9]) is listed as 1.0 ± 0.8 and the “D2OKis (solvent isotope effect on Kis)” value (HIV-1 protease [4]; [9]) is listed as 1.2 ± 0.4. For the same molecule, the “D2OKii (solvent isotope effect on Kii)” value (HIV-1 protease [4]; pH 6, substrate SEQ. ID. NO: 4) was 3.8 ± 1.3, the “D2OKis (solvent isotope effect on Kis)” value (HIV-1 protease [4]; pH 6, substrate SEQ. ID. NO: 4) was 4.2 ± 1.6 and the Ki (HIV-1 protease [4]; pH 6, substrate printed Ac-Ser-Glu-Asp-Tyr*Phe-Leu-Asp-Gly-NH2 (SEQ. ID. NO: 4), read-out: Kii) was 8 mM. For the same molecule, the Ki (HIV-1 protease [4]; pH 6, substrate printed Ac-Ser-Glu-Asp-Tyr*Phe-Leu-Asp-Gly-NH2 (SEQ. ID. NO: 4), read-out: Kis) was 7 mM.
With `O=C(O)[C@H](Cc1ccccc1)NC(=O)C(F)(F)F` [N-trifluroacetyl-L-phenylalanine] the “kcat (fitted pH-independent kinetic constant)” value (pepsin [5]; in D2O) was 0.022±2 min^−1, the “kcat (fitted pH-independent kinetic constant)” value (pepsin [5]; in H2O) was 0.038±0.006 min^−1 and the D2Okcat (pepsin [5]; ratio of pH-independent maxima, pKs separated by 0.6 units) was 1.8±0.4. The D2Okcat (pepsin [3]; estimated by Hunkapillar & Richards from maximal values of fitted curves) was “≈ 3”.
In the case of Leu-Ser-Nph-Nle-Ala-Leu-OMe, the “D2Okcat (solvent isotope effect)” value (pepsin [3]) is given as 1.51±0.02.
In the case of “Phe-Leu-Asp-Gly-NH2 (FLDG; printed: Phe-Leu-Asp-Gly-)”, the Ki (HIV-1 protease [4]; [6]) is listed as 4 mM, the Ki (HIV-1 protease [4]; [7]) is listed as 12 mM and the “D2OKii (solvent isotope effect on Kii)” value (HIV-1 protease [4]; [8]) is listed as 3.0 ± 0.9. For the same molecule, the “D2OKis (solvent isotope effect on Kis)” value (HIV-1 protease [4]; [8]) was 1.1 ± 0.4.
